From paper PMC12446476 (Nature Communications, 2025)

Test system: N. gonorrhoeae
Assay: In vitro time-kill assay
Format: cell-based, Neisseria gonorrhoeae
Conditions: for mean time to reach bactericidal activity: ten isolates
From the text: The 2024 WHO N. gonorrhoeae reference strains were used for quality control. Only whole MIC doubling dilutions are reported. Clinical breakpoints or the epidemiological cutoff (ECOFF, to indicate azithromycin resistance) from EUCAST (v14.0, https://www.eucast.org/clinical_breakpoints) were used to classify isolates as antimicrobial susceptible or resistant. […] Two times the standard inoculum defined by CLSI was used to establish consistent growth in untreated control samples for some strains. In vitro time-kill assays were performed according to CLSI guidelines[65] using Columbia Broth (BD Difco) supplemented with 1% IsoVitaleX Enrichment (BD). Viable bacterial counts were generated by plating 10-fold serially diluted samples on GC agar plates containing 1% IsoVitaleX Enrichment (BD).

## Cc1c(CN(C)C(=O)/C=C/c2cnc3c(c2)N[C@H](C)[C@H](O)C(=O)N3)oc2ccccc12 [Debio 1453]
2× MIC
  mean time to reach bactericidal activity: 10 h
4× MIC
  mean time to reach bactericidal activity: 8.5 h
8× MIC
  mean time to reach bactericidal activity: 8 h
16× MIC
  mean time to reach bactericidal activity: 8 h
6804, 2X MIC, 0 hr
  Log10CFU/ml (time kill): 6.11 Log10CFU/ml
6804, 2X MIC, 1 hr
  Log10CFU/ml (time kill): 6.05 Log10CFU/ml
6804, 2X MIC, 3 hr
  Log10CFU/ml (time kill): 5.70 Log10CFU/ml
6804, 2X MIC, 6 hr
  Log10CFU/ml (time kill): 5.13 Log10CFU/ml
6804, 2X MIC, 10 hr
  Log10CFU/ml (time kill): 4.59 Log10CFU/ml
6804, 2X MIC, 24 hr
  Log10CFU/ml (time kill): 1.95 Log10CFU/ml
6804, 4X MIC, 0 hr
  Log10CFU/ml (time kill): 6.04 Log10CFU/ml
6804, 4X MIC, 1 hr
  Log10CFU/ml (time kill): 6.04 Log10CFU/ml
6804, 4X MIC, 3 hr
  Log10CFU/ml (time kill): 5.43 Log10CFU/ml
6804, 4X MIC, 6 hr
  Log10CFU/ml (time kill): 4.53 Log10CFU/ml
6804, 4X MIC, 10 hr
  Log10CFU/ml (time kill): 3.72 Log10CFU/ml
6804, 4X MIC, 24 hr
  Log10CFU/ml (time kill): 1.95 Log10CFU/ml
6804, 8X MIC, 0 hr
  Log10CFU/ml (time kill): 6.21 Log10CFU/ml
6804, 8X MIC, 1 hr
  Log10CFU/ml (time kill): 6.03 Log10CFU/ml
6804, 8X MIC, 3 hr
  Log10CFU/ml (time kill): 5.13 Log10CFU/ml
6804, 8X MIC, 6 hr
  Log10CFU/ml (time kill): 4.30 Log10CFU/ml
6804, 8X MIC, 10 hr
  Log10CFU/ml (time kill): 3.41 Log10CFU/ml
6804, 8X MIC, 24 hr
  Log10CFU/ml (time kill): 1.95 Log10CFU/ml
6804, 16X MIC, 0 hr
  Log10CFU/ml (time kill): 6.00 Log10CFU/ml
6804, 16X MIC, 1 hr
  Log10CFU/ml (time kill): 6.07 Log10CFU/ml
6804, 16X MIC, 3 hr
  Log10CFU/ml (time kill): 5.20 Log10CFU/ml
6804, 16X MIC, 6 hr
  Log10CFU/ml (time kill): 4.67 Log10CFU/ml
6804, 16X MIC, 10 hr
  Log10CFU/ml (time kill): 3.70 Log10CFU/ml
6804, 16X MIC, 24 hr
  Log10CFU/ml (time kill): 1.95 Log10CFU/ml
AR Bank0175, 2X MIC, 0 hr
  Log10CFU/ml (time kill): 6.11 Log10CFU/ml
AR Bank0175, 2X MIC, 1 hr
  Log10CFU/ml (time kill): 5.92 Log10CFU/ml
AR Bank0175, 2X MIC, 3 hr
  Log10CFU/ml (time kill): 5.61 Log10CFU/ml
AR Bank0175, 2X MIC, 6 hr
  Log10CFU/ml (time kill): 4.46 Log10CFU/ml
AR Bank0175, 2X MIC, 10 hr
  Log10CFU/ml (time kill): 3.38 Log10CFU/ml
AR Bank0175, 2X MIC, 24 hr
  Log10CFU/ml (time kill): 1.95 Log10CFU/ml
AR Bank0175, 4X MIC, 0 hr
  Log10CFU/ml (time kill): 6.15 Log10CFU/ml
AR Bank0175, 4X MIC, 1 hr
  Log10CFU/ml (time kill): 5.59 Log10CFU/ml
AR Bank0175, 4X MIC, 3 hr
  Log10CFU/ml (time kill): 5.22 Log10CFU/ml
AR Bank0175, 4X MIC, 6 hr
  Log10CFU/ml (time kill): 4.45 Log10CFU/ml
AR Bank0175, 4X MIC, 10 hr
  Log10CFU/ml (time kill): 3.28 Log10CFU/ml
AR Bank0175, 4X MIC, 24 hr
  Log10CFU/ml (time kill): 1.95 Log10CFU/ml
AR Bank0175, 8X MIC, 0 hr
  Log10CFU/ml (time kill): 5.85 Log10CFU/ml
AR Bank0175, 8X MIC, 1 hr
  Log10CFU/ml (time kill): 5.40 Log10CFU/ml
AR Bank0175, 8X MIC, 3 hr
  Log10CFU/ml (time kill): 5.08 Log10CFU/ml
AR Bank0175, 8X MIC, 6 hr
  Log10CFU/ml (time kill): 3.85 Log10CFU/ml
AR Bank0175, 8X MIC, 10 hr
  Log10CFU/ml (time kill): 2.95 Log10CFU/ml
AR Bank0175, 8X MIC, 24 hr
  Log10CFU/ml (time kill): 1.95 Log10CFU/ml
AR Bank0175, 16X MIC, 0 hr
  Log10CFU/ml (time kill): 6.08 Log10CFU/ml
AR Bank0175, 16X MIC, 1 hr
  Log10CFU/ml (time kill): 5.41 Log10CFU/ml
AR Bank0175, 16X MIC, 3 hr
  Log10CFU/ml (time kill): 4.92 Log10CFU/ml
AR Bank0175, 16X MIC, 6 hr
  Log10CFU/ml (time kill): 3.81 Log10CFU/ml
AR Bank0175, 16X MIC, 10 hr
  Log10CFU/ml (time kill): 3.23 Log10CFU/ml
AR Bank0175, 16X MIC, 24 hr
  Log10CFU/ml (time kill): 1.95 Log10CFU/ml
AR Bank0179, 2X MIC, 0 hr
  Log10CFU/ml (time kill): 5.66 Log10CFU/ml
AR Bank0179, 2X MIC, 1 hr
  Log10CFU/ml (time kill): 5.63 Log10CFU/ml
AR Bank0179, 2X MIC, 3 hr
  Log10CFU/ml (time kill): 5.09 Log10CFU/ml
AR Bank0179, 2X MIC, 6 hr
  Log10CFU/ml (time kill): 4.63 Log10CFU/ml
AR Bank0179, 2X MIC, 10 hr
  Log10CFU/ml (time kill): 2.00 Log10CFU/ml
AR Bank0179, 2X MIC, 24 hr
  Log10CFU/ml (time kill): 1.95 Log10CFU/ml
AR Bank0179, 4X MIC, 0 hr
  Log10CFU/ml (time kill): 5.46 Log10CFU/ml
AR Bank0179, 4X MIC, 1 hr
  Log10CFU/ml (time kill): 5.53 Log10CFU/ml
AR Bank0179, 4X MIC, 3 hr
  Log10CFU/ml (time kill): 4.84 Log10CFU/ml
AR Bank0179, 4X MIC, 6 hr
  Log10CFU/ml (time kill): 3.98 Log10CFU/ml
AR Bank0179, 4X MIC, 10 hr
  Log10CFU/ml (time kill): 1.95 Log10CFU/ml
AR Bank0179, 4X MIC, 24 hr
  Log10CFU/ml (time kill): 1.95 Log10CFU/ml
AR Bank0179, 8X MIC, 0 hr
  Log10CFU/ml (time kill): 5.74 Log10CFU/ml
AR Bank0179, 8X MIC, 1 hr
  Log10CFU/ml (time kill): 5.30 Log10CFU/ml
AR Bank0179, 8X MIC, 3 hr
  Log10CFU/ml (time kill): 4.73 Log10CFU/ml
AR Bank0179, 8X MIC, 6 hr
  Log10CFU/ml (time kill): 3.88 Log10CFU/ml
AR Bank0179, 8X MIC, 10 hr
  Log10CFU/ml (time kill): 1.95 Log10CFU/ml
AR Bank0179, 8X MIC, 24 hr
  Log10CFU/ml (time kill): 1.95 Log10CFU/ml
AR Bank0179, 16X MIC, 0 hr
  Log10CFU/ml (time kill): 5.69 Log10CFU/ml
AR Bank0179, 16X MIC, 1 hr
  Log10CFU/ml (time kill): 5.23 Log10CFU/ml
AR Bank0179, 16X MIC, 3 hr
  Log10CFU/ml (time kill): 4.75 Log10CFU/ml
AR Bank0179, 16X MIC, 6 hr
  Log10CFU/ml (time kill): 3.67 Log10CFU/ml
AR Bank0179, 16X MIC, 10 hr
  Log10CFU/ml (time kill): 1.95 Log10CFU/ml
AR Bank0179, 16X MIC, 24 hr
  Log10CFU/ml (time kill): 1.95 Log10CFU/ml
ATCC 49226, 2X MIC, 0 hr
  Log10CFU/ml (time kill): 6.10 Log10CFU/ml
ATCC 49226, 2X MIC, 1 hr
  Log10CFU/ml (time kill): 5.92 Log10CFU/ml
ATCC 49226, 2X MIC, 3 hr
  Log10CFU/ml (time kill): 5.64 Log10CFU/ml
ATCC 49226, 2X MIC, 6 hr
  Log10CFU/ml (time kill): 4.51 Log10CFU/ml
ATCC 49226, 2X MIC, 10 hr
  Log10CFU/ml (time kill): 2.60 Log10CFU/ml
ATCC 49226, 2X MIC, 24 hr
  Log10CFU/ml (time kill): 1.95 Log10CFU/ml
ATCC 49226, 4X MIC, 0 hr
  Log10CFU/ml (time kill): 6.07 Log10CFU/ml
WHO V, 2X MIC, 0 hr
  Log10CFU/ml (time kill): 5.66 Log10CFU/ml
WHO V, 2X MIC, 1 hr
  Log10CFU/ml (time kill): 5.58 Log10CFU/ml
WHO V, 2X MIC, 3 hr
  Log10CFU/ml (time kill): 4.90 Log10CFU/ml
WHO V, 2X MIC, 6 hr
  Log10CFU/ml (time kill): 4.14 Log10CFU/ml
WHO V, 2X MIC, 10 hr
  Log10CFU/ml (time kill): 3.53 Log10CFU/ml
WHO V, 2X MIC, 24 hr
  Log10CFU/ml (time kill): 1.95 Log10CFU/ml
WHO V, 4X MIC, 0 hr
  Log10CFU/ml (time kill): 5.59 Log10CFU/ml
WHO V, 4X MIC, 1 hr
  Log10CFU/ml (time kill): 5.34 Log10CFU/ml
WHO V, 4X MIC, 3 hr
  Log10CFU/ml (time kill): 4.37 Log10CFU/ml
WHO V, 4X MIC, 6 hr
  Log10CFU/ml (time kill): 4.03 Log10CFU/ml
WHO V, 4X MIC, 10 hr
  Log10CFU/ml (time kill): 2.00 Log10CFU/ml
WHO V, 4X MIC, 24 hr
  Log10CFU/ml (time kill): 1.95 Log10CFU/ml
WHO V, 8X MIC, 0 hr
  Log10CFU/ml (time kill): 5.60 Log10CFU/ml
WHO V, 8X MIC, 1 hr
  Log10CFU/ml (time kill): 4.90 Log10CFU/ml
WHO V, 8X MIC, 3 hr
  Log10CFU/ml (time kill): 4.34 Log10CFU/ml
WHO V, 8X MIC, 6 hr
  Log10CFU/ml (time kill): 4.03 Log10CFU/ml
WHO V, 8X MIC, 10 hr
  Log10CFU/ml (time kill): 1.95 Log10CFU/ml
WHO V, 8X MIC, 24 hr
  Log10CFU/ml (time kill): 1.95 Log10CFU/ml
WHO V, 16X MIC, 0 hr
  Log10CFU/ml (time kill): 5.81 Log10CFU/ml
WHO V, 16X MIC, 1 hr
  Log10CFU/ml (time kill): 5.00 Log10CFU/ml
WHO V, 16X MIC, 3 hr
  Log10CFU/ml (time kill): 4.27 Log10CFU/ml
Within 24 h, all concentrations tested, as low as 2× MIC, 10 isolates
  reduction in viable CFU counts: ≥ 3 log10
